# Experimental data as given in ChEMBL document CHEMBL4819146, “Optimization of physicochemical properties of pyridone-based EP3 receptor antagonists” (Bioorg Med Chem Lett, 2021).
# How the values were obtained:
# [1] = Volume of distribution at steady state in Sprague-Dawley rat at 2 mg/kg, iv; type: ADME, organism-based; settings: in vivo, read-out: Vdss
# [2] = Cmax in Sprague-Dawley rat at 20 mg/kg, po; type: ADME, organism-based; design: route oral, dose 20 mg/kg; settings: in vivo
# [3] = AUC in Sprague-Dawley rat at 20 mg/kg, po; type: ADME, organism-based; design: dose 20 mg/kg; settings: in vivo
# [4] = Oral bioavailability in Sprague-Dawley rat at 20 mg/kg; type: ADME, organism-based; settings: in vivo
# [5] = Apparent permeability from apical to basolateral side in dog MDCK cells; type: ADME, cell-based, Canis lupus familiaris
Structure (SMILES),Vd [1],Cmax [2],AUC [3],F [4],Papp A→B [5]
CCn1ncc2c(F)cc(-c3ccc(C(CC)(CC)c4nnc[nH]4)c(=O)[nH]3)cc21,0.5 L/kg,5120 ng/mL,59653 ng·h/mL,81.6%,
CC(C)C(c1noc(=O)[nH]1)c1ccc(-c2ccc3cccc(F)c3c2)[nH]c1=O (configuration not stated),0.21 L/kg,6960 ng/mL,15775 ng·h/mL,47.8%,25.3 ×10⁻⁶ cm/s
CC(C)C(c1nnc[nH]1)c1ccc(-c2ccc3cccc(F)c3c2)[nH]c1=O (configuration not stated),1.98 L/kg,409 ng/mL,4242 ng·h/mL,,
